From patent US5606037A, “Processes antineoplastic heteronaphthoquinones” (BioChem Pharma Inc., priority 1995, dated 1997)
pIC50: −log10 of the molar value. Where a name gives a salt, the structure may show the parent alone.

How the values were obtained:
Format in all cases: cell-based, Human
VLB/OV3 = assay: Resistance ratio of SKVLB over SKOV3 cytotoxicity (VLB/OV3); conditions: ratio SKVLB to SKOV3; Table 1; 2880 min
Method: The microculture tetrazolium assay was used to test in vitro cytotoxicity. This assay is described in Plumb, J. A. et al., 1989 Cancer Research 49, 4435-4440, which is herein incorporated by reference. The cytotoxicity of compounds towards tumor cells is measured in vitro using the assay. This assay method is based upon the ability of live, but not dead cells to reduce the yellow water soluble dye 3-(4,5-dimethylthiazol-2-yl)-2,5-diphenyltetrazolium bromide (MTT) to its water insoluble purple formazan product.
SKOV3 (Ovarian adenocarcinoma)--provided by Dr. V. Ling, Ontario Cancer Institute.
SKVLB (Ovarian; multidrug resistant)--Dr. V. Ling, Ontario Cancer Institute.
For each assay, doxorubicin is included as an inter-assay standard. This allows us to monitor the behaviour of the assay in general, and in particular, to check that the SKVLB line has maintained its resistant phenotype.
Cells are plated out in 100 μl of culture medium in the microtiter plates at a density of around 1,500-4,000 cells per well. The plates are incubated overnight to allow the cells to become adherent after which the test compound is added (100 μl of appropriate dilution per well). The cells are incubated with test compound at 37° C. for 48 h after which the compound is replaced with fresh medium. After a further 48 h incubation at 37° C., 50 μl of MTT solution (2 mg/ml) is added to each well. The plates are incubated in the dark for 4 h at 37° C. after which the medium is removed. The MTT formazan product is extracted from the cells by the addition of 200 μl DMSO followed by 50 μl of Sorensen's buffer. The plates are shaken briefly and the absorbance at 570 nm is read using a Molecular Devices UV max plate reader. Curves are fit to the MTT assay data using a four parameter logistic equation, and the data are normalized to fit a 0% to 100% survival scale.

Lox (Melanoma) = assay: In vitro cytotoxicity, microculture tetrazolium (MTT) assay, LOX; conditions: Homo sapiens, 48 h with compound, further 48 h, Table 1
In short: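 LOX melanoma cells, 1,500–4,000 per well, exposed to compound (1:3 dilutions, 100 μM to 1.7 nM) for 48 h at 37° C., then 48 h in fresh medium. MTT reduction read at 570 nm; four-parameter logistic fit normalized to 0–100% survival.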

[1] = test system: SKVLB (Ovarian; multidrug resistant); assay: In vitro cytotoxicity, microculture tetrazolium (MTT) assay, SKVLB; conditions: Homo sapiens; SKVLB multidrug resistant ovarian; 48 h with compound, further 48 h, MTT; Table 1
In short: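 Multidrug-resistant SKVLB ovarian cells, 1,500–4,000 per well, exposed to compound (1:3 dilutions, 100 μM to 1.7 nM, quadruplicate) for 48 h at 37 °C, then 48 h in fresh medium. Viability by MTT reduction, formazan read at 570 nm; four-parameter logistic fit on a 0–100% survival scale.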

[2] = test system: HT 29 (Colon adenocarcinoma); assay: In vitro cytotoxicity, microculture tetrazolium (MTT) assay, HT29; conditions: Homo sapiens, HT-29, 48 h with compound, further 48 h, Table 1
In short: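 HT29 cells exposed to compound (1:3 series, 100 μM to 1.7 nM, quadruplicate) for 48 h at 37 °C, then 48 h in fresh medium. Viability by MTT reduction, formazan absorbance at 570 nm; four-parameter logistic fit on 0-100% survival scale.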

[3] = test system: T47D (Ductal carcinoma of breast); assay: In vitro cytotoxicity, microculture tetrazolium (MTT) assay, T47D; conditions: Homo sapiens, 48 h with compound, further 48 h, Table 1
In short: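 Adherent cells (1,500-4,000/well) were exposed to compound in 1:3 dilutions from 100 μM to 1.7 nM, in quadruplicate, for 48 h at 37° C, followed by 48 h in fresh medium. MTT formazan was read at 570 nm, and data were fitted by four-parameter logistic on a 0-100% survival scale.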

[4] = test system: SKOV3 (Ovarian adenocarcinoma); assay: In vitro cytotoxicity, microculture tetrazolium (MTT) assay, SKOV3; conditions: Homo sapiens, SK-OV-3; SKOV3 ovarian adenocarcinoma; 48 h with compound, further 48 h, MTT; Table 1
In short: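 Cells plated overnight, then exposed to compound (1:3 dilutions, 100 μM to 1.7 nM, quadruplicate) 48 h at 37 °C, followed by 48 h in fresh medium. MTT 4 h, formazan extracted in DMSO/Sorensen's buffer pH 10.5, A570; four-parameter logistic fit on 0–100% survival scale.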

| SMILES | VLB/OV3 (VLB/OV3) | pIC50 (Lox (Melanoma)) | pIC50 [1] | pIC50 [2] | pIC50 [3] | pIC50 [4] |
| --- | --- | --- | --- | --- | --- | --- |
| CC(=O)OC1C(C)OC(OC2OC(C(C)=O)CC3=C2C(=O)c2ccccc2C3=O)C(I)C1OC(C)=O (mixture of isomers) [BCH2065, (1'S,1R,1S) and (1'S,1S,3R)-methyl-(1-[2',6'-dideoxy-3',4'-diacetoxy-2'-iodo-L-arabino-hexopyranose]-5,10-dioxo-3,4,5,10-tetrahydronaphtho-[2,3-c]-pyran-3-yl) ketone] | 4 |  |  |  |  |  |
| CC(=O)C1CC2=C(C(=O)c3ccccc3C2=O)C(OCC2CCN(C(=O)OC(C)(C)C)CC2)O1.Cl (racemic) [BCH2068, Methyl-(1-O-[N-BOC-4-piperidine-methanol]-5,10-dioxo-3,4,5,10-tetrahydronaphthaleno-[2,3-c]pyran-3-yl) ketone, racemic, hydrochloride] | 1 |  |  |  |  |  |
| CC(=O)[C@@H]1CC2=C(C(=O)c3ccccc3C2=O)[C@@H](O[C@@H]2O[C@@H](C)[C@@H](O)[C@@H](NC(=O)C(F)(F)F)C2I)O1 (stereo partly drawn) [BCH2023, (1'S,1R,3S)-methyl-(1-[2',3',6'-trideoxy-2'-iodo-3'-trifluoroacetamido-4'-hydroxy-L-lyxohexopyranose]-5,10-dioxo-3,4,5,10-tetrahydronaphtho-[2,3-c]-pyran-3-yl) ketone] |  | 6.17 | 5.49 | 6.01 | 5.26 | 6.14 |
| CC(=O)C1CC2=C(C(=O)c3ccccc3C2=O)C(O)O1 (stereo not shown) [BCH1148, Methyl (1-hydroxy-5,10-dioxo-3,4,5,10-tetrahydronaphtho [2,3-C]pyran-3-yl) ketone] |  | < 4.00 | < 4.00 | < 4.00 | < 4.00 | < 4.00 |
| COC(=O)[C@]1(C)CC2=C(C(=O)c3ccccc3C2=O)[C@@H](O[C@H]2C[C@H](NC(=O)C(F)(F)F)[C@H](O)[C@H](C)O2)O1 [BCH2077, (1'S, 1R, 3S)-1-(3-trifluoroacetamido-2',3',6'-trideoxy-L-lyxohexopyranose)-3-methoxycarbonyl-3-methyl-3,4,5,10-tetrahydro-5,10-dioxo-1H-naphtho-[2,3-c]pyran] |  | 5.72 | 4.68 | 5.47 | 5.11 | 5.71 |
| CO[C@H]1C[C@H](O[C@H]2O[C@H](C(C)=O)C[C@]34O[C@]23C(=O)c2ccccc2C4=O)O[C@@H](C)[C@H]1OS(C)(=O)=O [BCH2141, (1'-S,1-R,3-S,4a-S,10a-S)-methyl-(1-[2',3',4',6'-tetradeoxy-3'-methoxy-4'-O-methanesulfonyl-L-lyxohexopyranose)-4a,10a-epoxy-5,10-dioxo-3,4,5,10-tetrahydronaphtho-[2,3-c]pyran-3-yl) ketone] |  | 5.74 | 5.00 | 5.19 | 5.42 | 5.09 |
| CO[C@H]1C[C@H](O[C@H]2O[C@H](C(C)=O)CC3=C2C(=O)c2ccccc2C3=O)O[C@@H](C)[C@H]1OS(C)(=O)=O [BCH2070, (1'-S, 1-R, 3-S)-methyl-(1-[2',3',4',6' tetradeoxy-3'-methoxy-4'-O-methanesulfonyl-L-lyxohexopyranose)-5,10-dioxo-3,4,5,10 tetrahydronaphtho-[2,3-c]pyran-3-yl) ketone] |  | 7.82 | 6.92 | 6.27 to 8.22 | 7.74 | 8.08 |
| CC[C@H]1CC2=C(C(=O)c3ccccc3C2=O)[C@H](O[C@H]2C[C@H](N)[C@H](O)[C@H](C)O2)O1 [BCH2021, (1'S,1S,3S)-5,10-dioxo-3-ethyl-1-(2',3',6'-trideoxy-3'-amino-L-lyxohexopyranose)-3,4,5,10-tetrahydro-1H-naphtho-[2,3-c]-pyran hydrochloride] |  | 4.97 | 4.33 | 4.42 | 4.72 | 4.91 |
| CC(=O)[C@@H]1CC2=C(C(=O)c3ccccc3C2=O)[C@@H](O[C@H]2C[C@H](NC(=O)C(F)(F)F)[C@H](O)[C@H](C)O2)S1 [BCH2037, (1'S,1S,3S)-1-(3'-trifluoroacetamido-2',3',6'-trideoxy-L-lyxohexopyranose)-5,10-dioxo-3,4,5,10-tetrahydro-1H-naphtho-[2,3-c]-thiopyran] |  | 6.09 to 6.27 | 5.33 to 5.42 | 5.37 to 5.96 | 5.64 to 5.66 | 5.29 to 6.23 |
| CC(=O)CC1CC2=C(C(=O)c3cccc(O)c3C2=O)C(O[C@H]2C[C@H](NC(=O)C(F)(F)F)[C@H](O)[C@H](C)O2)O1 (mixture of isomers) [BCH2098, (1'-S, 1-S, 3-R) and (1'-S, 1-R, 3-S)-1-(6-hydroxy-1-(2',3',6'-trideoxy-3'-trifluoroacetamido, 4-hydroxy-L-lyxopyranose)-5,10-dioxo-3,4,5,10 tetrahydronaphtho-[2,3-c]pyran-3-yl) propane-2-one] |  | 5.38 | 4.52 | 4.77 | 5.00 | 5.10 |
| CC(=O)C1CC2=C(CO1)C(=O)c1ccc(O)cc1C2=O (stereo not shown) [BCH1129, Methyl (7-hydroxy-5,10-dioxo-3,4,5,10-tetrahydronaphtho [2,3-C]pyran-3-yl) ketone] |  | 4.05 | < 4.00 | 4.20 | 4.23 | 4.13 |
| CC(=O)C1CC2=C(C(=O)c3ccccc3C2=O)C(OCC2CCCN(C(=O)OC(C)(C)C)C2)O1 (mixture of isomers) [BCH2060, Methyl-(1-O-[N-BOC-3-piperidinemethanol]-5,6-dioxo-3,4,5,10-tetrahydronaphthaleno-[2,3-c]pyran-3-yl) ketone] |  | 5.71 | 5.60 | 6.59 | 6.25 | 5.94 |
| CC[C@H]1CO[C@H](O[C@H]2C[C@H](NC(=O)C(F)(F)F)[C@H](O)[C@H](C)O2)C2=C1C(=O)c1ccccc1C2=O [BCH2091, (1'S, 1R, 4R)-5,10-dioxo-4-ethyl-1-(2',3',6'-trideoxy-3'-trifluoroacetamido-L-lyxohexopyranose)-3,4,5,10-tetrahydro-1H-naphtho-[2,3-c]pyran] |  | 5.48 | 4.49 | 4.95 | 4.80 | 4.87 |
| CC(=O)[C@H]1CC2=C(C(=O)c3ccccc3C2=O)[C@H](O[C@H]2C[C@H](NC(=O)C(F)(F)F)[C@H](Br)[C@H](C)O2)O1 [BCH2047, (1S,3R,1'S)-Methyl-(1-[2',3',4',6'-tetradeoxy-3'-trifluoroacetamido-4'-bromo-L-lyxohexopyranose]-5,10-dioxo-3,4,5,10-tetrahydronaphthaleno-[2,3-c]pyran-3-yl) ketone] |  | 7.68 | 6.28 | 8.39 | 6.82 | 7.77 |
| CC(=O)[C@H]1CC2=C(C(=O)c3ccccc3C2=O)[C@H](O[C@@H]2O[C@@H](C)[C@@H](O)[C@@H](O)[C@H]2I)O1 [BCH2014, (1'S,1S,3R)-methyl-(1-[2',6'-dideoxy-3',4'-dihydroxy-2'-iodo-L-lyxohexopyranose]-5,10-dioxo-3,4,5,10-tetrahydronaphtho[2,3-c]-pyran-3-yl)-ketone] |  | 4.44 | 4.40 | 4.21 | 4.21 | 4.67 |
